# Experimental data taken from PMC9532478, “A Novel CTLA-4 affinity peptide for cancer immunotherapy by increasing the integrin αvβ3 targeting” (Discover. Oncology, 2022).
# Ends that are not written are not given here.
# T1: hCTLA-4 protein (Homo sapiens, UniProt P16410)
# T1 sequence (P16410 36-223): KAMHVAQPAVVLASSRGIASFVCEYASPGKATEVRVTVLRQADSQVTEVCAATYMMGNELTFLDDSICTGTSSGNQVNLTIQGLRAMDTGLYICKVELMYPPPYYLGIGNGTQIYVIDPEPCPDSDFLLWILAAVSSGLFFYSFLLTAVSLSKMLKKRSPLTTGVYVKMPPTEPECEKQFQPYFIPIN
# T2: hCTLA-4 protein (human, UniProt P16410 36-161)
# T2 construct: human CTLA-4 protein, soluble recombinant protein; The MST methods speak of a 'Red-NHS647 dye-labelled protein' without naming it; also called human CTLA-4 protein
# T2 sequence (looked up): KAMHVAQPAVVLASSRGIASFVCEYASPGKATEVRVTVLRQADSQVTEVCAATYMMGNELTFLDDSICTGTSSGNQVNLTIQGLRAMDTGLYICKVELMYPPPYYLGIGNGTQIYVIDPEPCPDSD
# B1: LC4 (peptide)
# peptide: WGHSHFSHWKGR
# notes: 12-mer selected from the Ph.D.-12 phage display peptide library on hCTLA-4; also called LC4 peptide; source: synthetic peptide (solid phase Fmoc synthesis, RP-HPLC)
# B2: LC8 (peptide)
# peptide: RHHSSNPRDTAP
# notes: 12-mer selected from the Ph.D.-12 phage display peptide library on hCTLA-4; source: synthetic peptide (solid phase Fmoc synthesis, RP-HPLC)
# B3: LC7 (peptide)
# peptide: LDRPSSLAHLAS
# notes: as for B2
# B4: LC3 (peptide)
# peptide: SWHWHTHVRHQM
# notes: as for B2
# Key:
# hCTLA-4 protein [1] = target: T1, hCTLA-4 protein; assay: MST affinity of CTLA-4 binding peptides to hCTLA-4 protein; settings: Monolith NT.115, Red-NHS647 dye-labelled protein, peptides from 400 μmol/L, 16 twofold dilutions, room temperature 5 min
# Description: The CTLA-4 binding peptides were first diluted to 400 μmol/L with MST buffer, and twofold serial dilutions were carried out to obtain 16 concentration gradients subsequently. Equal Red-NHS647 dye-labelled protein and peptide volumes were incubated at room temperature for 5 min, the mixture was loaded onto standard capillaries (NanoTemper Technologies GmhH), and immediately placed in an MST instrument for detection. The dissociation constant (Kd) was determined using the NanoTemper analysis software MO. Affinity Analysis v2.2.4.
# CT26 tumour = assay: CT26 tumour-bearing mice, peritumoral LC4; assay type: in vivo
# Description: BALB/c mice were subcutaneously injected with 2 × 10^5 syngeneic CT26 cells to establish colorectal cancer xenograft model. The mice were divided into control group, LC4 (1 mg / kg) group and LC4 (4 mg / kg) group when the tumor grew to 40–80 mm.^3, peritumoral administration for 14 days. Statistical graph of A tumor volumes and B body weight of LC4 (1 mg / kg) group, LC4 (4 mg / kg) group and control group. Data are expressed as the mean ± SD (n = 5) and statistical significance between groups was determined by Student’s t test: *p < 0.05, ***p < 0.001
# Fig. 6 The LC4 activation on T cells was determined in vivo. […] Data are expressed as the mean ± SD (n = 5) and statistical significance between groups was determined by Student’s t test: *p < 0.05, **p < 0.01, ***p < 0.001, ****p < 0.0001; ns = no significance TEXT PRINTED IN THE PICTURE: (A) LC4: Tumor CD3^+CD8^+(%): 6.86 (1mg/kg); Tumor CD3^+CD8^+(%): 19.3 (4mg/kg) | (B) LC4: Spleen CD8^+IFN-γ^+(%): 42.9 (1mg/kg); Spleen CD8^+IFN-γ^+(%): 42.5 (4mg/kg) | (C) LC4: Spleen CD4^+IFN-γ^+(%): 15.6 (1mg/kg); Spleen CD4^+IFN-γ^+(%): 14.2 (4mg/kg) | (D) LC4: DLN CD8^+IFN-γ^+(%): 45.8 (1mg/kg); DLN CD8^+IFN-γ^+(%): 56 (4mg/kg) | (E) LC4: DLN CD4^+IFN-γ^+(%): 2.31 (1mg/kg); DLN CD4^+IFN-γ^+(%): 2.83 (4mg/kg) DOUBTS OF THE COPYIST ABOUT THIS PICTURE: The gate numbers in the flow cytometry plots are printed without a measure or unit. […]
# hCTLA-4 protein [2] = target: T2, hCTLA-4 protein; assay: MST; Monolith NT.115; peptides first diluted to 400 μmol/L in MST buffer, 16 twofold dilutions; equal volumes of Red-NHS647 dye-labelled protein and peptide, room temperature 5 min, standard capillaries; settings: both partners purified
Molecule,Kd (hCTLA-4 protein [1]),Kd (hCTLA-4 protein [2]),also measured
RWKDTAYALTNN [LC1],> 200 µM,–,–
ASANDNRLRYTY [LC6],> 200 µM,–,–
HHLRIPYALDQT [LC2],> 200 µM,–,–
WGHSHFSHWKGR [LC4],–,–,"effect on weight of mice (in words) (CT26 tumour; 1 mg/kg/day or 4 mg/kg/day, peritumoral, 14 days, n = 5): no significant effect on the weight of mice; pathological changes in heart, liver, lung, kidney (H&E staining, in words) (CT26 tumour; mouse, in vivo): No obvious pathological changes"
SHRWQVWSRDRA [LC5],> 200 µM,–,–
B1,–,6.86 ± 2.63 µM,–
B2,–,8.82 ± 0.69 µM,–
B3,–,2.14 ± 0.69 µM,–
B4,–,0.04 ± 0.01 µM,–
